The source of these data is PubChem BioAssay (NCI).

Test systems include UACC-62 melanoma; HOP-92 NSCLC; OVCAR-5 ovarian; SF-268 CNS; COLO 205 colon; RXF 393 renal; RPMI-8226 leukemia; OVCAR-8 ovarian; BT-549 breast; 786-0 renal.
Holding throughout (assay): NCI anticancer screen, dose series, 48 h

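The compound was tested at five concentrations on cells cultured in 96-well plates, with a 48-hour exposure period. Definition used: TGI = concentration required for complete inhibition of growth.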 Where only a bound is given, the exact number is not on record here.

Turning to `CC1=NNC(=O)C1C1C(=O)NN=C(c2c[nH]c3ccccc23)C1Br` (stereo not given), the TGI with UACC-62 melanoma, in the experiment on HOP-92 NSCLC, in the experiment with OVCAR-5 ovarian, in the experiment with SF-268 CNS, in the experiment with COLO 205 colon and with RXF 393 renal was above 100 µM throughout. Also, the TGI with RPMI-8226 leukemia, in the experiment with OVCAR-8 ovarian, in the experiment on BT-549 breast and in the experiment on 786-0 renal was above 100 µM throughout.
Consider `COc1ccc(N2C(=O)C3c4[nH]c5ccc(OCc6ccccc6)cc5c4C4CCC(c5ccccc5)CC4C3C2=O)cc1` (stereo not given), for which the TGI in the experiment with UACC-62 melanoma was 29 µM; with HOP-92 NSCLC, 10.3 µM; in the experiment with OVCAR-5 ovarian, above 95.8 µM; in the experiment with SF-268 CNS, 37.4 µM; with COLO 205 colon, above 100 µM; with RXF 393 renal, 21.1 µM. In addition, the TGI in the experiment on OVCAR-8 ovarian amounted to 47.5 µM; in the experiment with BT-549 breast, 17 µM; with 786-0 renal, 7.51 µM.
As to `CCOC(=O)c1c(C)n(Cc2ccc(Cl)cc2Cl)c2c1cc(O)c1[nH]c3c(c12)CCCC3`, the TGI in the experiment with UACC-62 melanoma is 49.2 µM; in the experiment with HOP-92 NSCLC, 43 µM; in the experiment with OVCAR-5 ovarian, above 100 µM; in the experiment on SF-268 CNS, 56.4 µM; with COLO 205 colon it was above 100 µM; in the experiment on RXF 393 renal it was 41.2 µM. The TGI was 50.7 µM in the experiment with RPMI-8226 leukemia, 53.5 µM in the experiment with OVCAR-8 ovarian, 41.3 µM with BT-549 breast and above 100 µM in the experiment with 786-0 renal.
For `COc1ccc(N2CC(=O)N(C(=O)COc3ccc(OCC(=O)N4C(=O)CN(c5ccc(OC)cc5)C4=S)cc3)C2=S)cc1`, the TGI in the experiment with UACC-62 melanoma, in the experiment with HOP-92 NSCLC, in the experiment with OVCAR-5 ovarian, in the experiment on SF-268 CNS, with COLO 205 colon and in the experiment with RXF 393 renal was above 100 µM each time. Moreover, the TGI in the experiment on RPMI-8226 leukemia, with BT-549 breast and in the experiment with 786-0 renal was above 100 µM in each case.
On to `OC1[C@@H]2[C@@H](O)CCCN2C[C@@H](O)[C@H]1O` (stereo not given in full), for which the TGI with UACC-62 melanoma, in the experiment on HOP-92 NSCLC, in the experiment with OVCAR-5 ovarian, in the experiment on SF-268 CNS, in the experiment with COLO 205 colon and in the experiment on RXF 393 renal was above 100 µM in each case. For the same compound, the TGI in the experiment with RPMI-8226 leukemia, with OVCAR-8 ovarian, in the experiment with BT-549 breast and in the experiment with 786-0 renal was above 100 µM each time.
On to `CCNCCNC(=O)c1ccc(I)cc1`, for which the TGI in the experiment on UACC-62 melanoma, in the experiment with HOP-92 NSCLC, in the experiment with OVCAR-5 ovarian, in the experiment with SF-268 CNS, in the experiment with RXF 393 renal and with RPMI-8226 leukemia was above 100 µM throughout. Also, the TGI with OVCAR-8 ovarian, in the experiment with BT-549 breast and in the experiment with 786-0 renal was above 100 µM each time.
Turning to `COc1cccc(N2C(=O)CSC2c2cccc(Oc3ccccc3)c2)c1` (stereo not given), the TGI was 11.7 µM in the experiment on UACC-62 melanoma; 62.8 µM with HOP-92 NSCLC; above 100 µM in the experiment with OVCAR-5 ovarian; 42.9 µM with SF-268 CNS; 10.2 µM with COLO 205 colon; 39.1 µM in the experiment with RXF 393 renal. Moreover, the TGI in the experiment on OVCAR-8 ovarian was 50.7 µM; with BT-549 breast, 45.6 µM; with 786-0 renal, 24 µM.
For `O=[N+]([O-])c1ccccc1OCCOc1ccccc1[N+](=O)[O-]`, the TGI in the experiment with UACC-62 melanoma, in the experiment on HOP-92 NSCLC, in the experiment on OVCAR-5 ovarian, with SF-268 CNS, with COLO 205 colon and with RXF 393 renal was above 100 µM each time. Also, the TGI in the experiment with RPMI-8226 leukemia, in the experiment on OVCAR-8 ovarian, in the experiment with BT-549 breast and in the experiment on 786-0 renal was above 100 µM each time.
For `Cc1ccc(Nc2nc3[nH]ccc3c(=O)[nH]2)cc1`, the TGI in the experiment on UACC-62 melanoma, in the experiment with HOP-92 NSCLC, in the experiment on OVCAR-5 ovarian, with SF-268 CNS, in the experiment on COLO 205 colon and in the experiment on RXF 393 renal was above 100 µM each time. Further, the TGI with RPMI-8226 leukemia, with OVCAR-8 ovarian, in the experiment with BT-549 breast and with 786-0 renal was above 100 µM throughout.
As for `O=C(O)CCc1nc2c(n1-c1ccccc1)C(=O)c1ccccc1C2=O`, the TGI with UACC-62 melanoma is above 100 µM; in the experiment on HOP-92 NSCLC it was 61.3 µM; in the experiment with OVCAR-5 ovarian, above 100 µM; in the experiment with SF-268 CNS, above 100 µM; with COLO 205 colon it was above 100 µM; in the experiment on RXF 393 renal, above 100 µM. Further, the TGI with RPMI-8226 leukemia, in the experiment with OVCAR-8 ovarian, in the experiment with BT-549 breast and in the experiment with 786-0 renal was above 100 µM in each case.
As to `CC(=O)O[C@H]1CC(C)(C)C(=C=C/C(C)=C/C=C/C=C/C=C(C)/C=C2C=C(/C=C/[C@@]34O[C@]3(C)C[C@@H](O)CC4(C)C)C(=O)O/2)[C@](C)(O)C1`, the TGI with UACC-62 melanoma is 24 µM; in the experiment on HOP-92 NSCLC it was above 100 µM; in the experiment with OVCAR-5 ovarian it was 68.7 µM; in the experiment with SF-268 CNS, 43.6 µM; in the experiment with COLO 205 colon, above 100 µM; in the experiment on RXF 393 renal, 20.5 µM. Also, the TGI in the experiment on RPMI-8226 leukemia came to 27.9 µM; in the experiment on OVCAR-8 ovarian, 25.2 µM; in the experiment with BT-549 breast, 8.16 µM; in the experiment with 786-0 renal, 85.9 µM.
Regarding `O=c1[nH]cc(NCCCl)c(=O)[nH]1`, the TGI with UACC-62 melanoma, in the experiment with HOP-92 NSCLC, in the experiment on OVCAR-5 ovarian, in the experiment with SF-268 CNS, in the experiment with COLO 205 colon and with RXF 393 renal was above 100 µM in each case. In addition, the TGI with RPMI-8226 leukemia, with OVCAR-8 ovarian, with BT-549 breast and in the experiment on 786-0 renal was above 100 µM throughout.
Regarding `O=C(O)CC(Cc1ccccc1Cl)C(=O)O` (stereo not given), the TGI in the experiment with UACC-62 melanoma, with HOP-92 NSCLC, with OVCAR-5 ovarian, in the experiment on SF-268 CNS, in the experiment on COLO 205 colon and with RXF 393 renal was above 100 µM throughout. The TGI with RPMI-8226 leukemia, in the experiment on OVCAR-8 ovarian, in the experiment on BT-549 breast and in the experiment on 786-0 renal was above 100 µM each time.
In the case of `CC(N=NNc1ccc(-c2nc3ccccc3[nH]2)cc1)C(=O)O` (stereo not given), the TGI with HOP-92 NSCLC, with OVCAR-5 ovarian, in the experiment with SF-268 CNS, with COLO 205 colon, with RXF 393 renal and in the experiment with RPMI-8226 leukemia was above 100 µM each time. The results for the TGI in the experiment on OVCAR-8 ovarian, in the experiment with BT-549 breast and with 786-0 renal were above 100 µM, 57.6 µM and 89.9 µM, respectively.
